± gives the standard deviation of the averaged measurements.
Key:
[1] = system: Homo sapiens (human subject panel, olfactory perception); assay: perceived odor pleasantness rating (rating 0-100); higher = more pleasant
Outline: (§1)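 Across ten visits of 100 stimuli, 55 healthy human subjects aged 18–50 sniffed 1 mL of each molecule in paraffin oil in randomized order, at both high and low concentrations. The six lowest performers were excluded. Whenever a subject reported smelling a stimulus, they rated it on a computerized slider that started at 50 and had to be moved, and positions were converted to a 0–100 scale. Each familiarity, intensity and pleasantness figure is a mean across subjects.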

[2] = system: Homo sapiens (human subject panel, olfactory perception); assay: perceived odor familiarity rating (rating 0-100); higher = more familiar
Outline: as §1

[3] = system: Homo sapiens (human subject panel, olfactory perception); assay: perceived odor intensity rating (rating 0-100); higher = stronger perceived smell
Outline: as §1

[4] = odor dilution in paraffin oil: 1/1,000
[5] = odor dilution in paraffin oil: 1/100,000
[6] = odor dilution in paraffin oil: 1/10
[7] = odor dilution in paraffin oil: 1/10,000,000

SMILES | perceived odor pleasantness rating [1, 4] | perceived odor pleasantness rating [1, 5] | perceived odor familiarity rating [2, 4] | perceived odor familiarity rating [2, 5] | perceived odor intensity rating [3, 4] | perceived odor intensity rating [3, 5] | perceived odor pleasantness rating [1, 6] | perceived odor familiarity rating [2, 6] | perceived odor intensity rating [3, 6] | perceived odor pleasantness rating [1, 7] | perceived odor familiarity rating [2, 7] | perceived odor intensity rating [3, 7]
CC(C)c1ccccc1O [2-Isopropylphenol] | 28.8 ± 22 | 44.4 ± 20 | 49 ± 34 | 36 ± 29 | 84.3 ± 14 | 38.8 ± 30 |  |  |  |  |  | 
O=C(c1ccccc1)c1ccccc1 [benzophenone] | 57.5 ± 25 |  | 33.2 ± 28 |  | 24.9 ± 29 |  | 36.2 ± 24 | 38.6 ± 31 | 67.7 ± 27 |  |  | 
CCCCC(CC)CO (stereo unspecified) [2-ethyl-1-hexanol] | 19.4 ± 22 | 25.9 ± 23 | 42.1 ± 30 | 43.6 ± 31 | 79.7 ± 19 | 51.2 ± 34 |  |  |  |  |  | 
COC(=O)c1ccco1 [methyl 2-furoate] | 37.2 ± 24 | 48.7 ± 22 | 43.2 ± 29 | 39.5 ± 28 | 62.6 ± 25 | 33.8 ± 34 |  |  |  |  |  | 
c1ccsc1 [Thiophene] | 28.7 ± 20 | 40.8 ± 24 | 39.3 ± 29 | 43.1 ± 30 | 32.8 ± 34 | 39.5 ± 30 |  |  |  |  |  | 
C=CC(C)(O)CCC=C(C)C (stereo unspecified) [Linalool] | 74.6 ± 19 | 66 ± 23 | 60.6 ± 32 | 39.9 ± 30 | 62.1 ± 26 | 32.6 ± 25 |  |  |  |  |  | 
O=C1CCCCC1 [Cyclohexanone] | 38 ± 27 | 47.9 ± 23 | 52.5 ± 28 | 26.7 ± 25 | 69.9 ± 22 | 19.6 ± 27 |  |  |  |  |  | 
CCCCOC(C)=O [butyl acetate] | 55.6 ± 27 | 61.1 ± 19 | 67.5 ± 29 | 43.7 ± 31 | 76.5 ± 18 | 31.6 ± 24 |  |  |  |  |  | 
CNc1ccccc1C(=O)OC [Dimethyl anthranilate] | 63.1 ± 23 | 53.3 ± 26 | 53 ± 28 | 31.2 ± 29 | 44.2 ± 31 | 17.1 ± 21 |  |  |  |  |  | 
S=C=NCc1ccccc1 [Benzyl isothiocyanate] | 15.1 ± 19 | 29 ± 23 | 40.9 ± 32 | 43.4 ± 26 | 80.9 ± 20 | 55 ± 30 |  |  |  |  |  | 
COc1ccccc1C=O [o-Anisaldehyde (replicate)] | 40.8 ± 28 | 40.3 ± 24 | 50.7 ± 31 | 46 ± 29 | 72.1 ± 23 | 36 ± 32 |  |  |  |  |  | 
OCc1ccco1 [Furfuryl alcohol] | 39.6 ± 23 | 44.6 ± 24 | 50.3 ± 27 | 33.6 ± 28 | 56.7 ± 29 | 22.8 ± 22 |  |  |  |  |  | 
CC/C=C\CCOC(=O)C(C)O (stereo not drawn) [cis-3-Hexenyl lactate] | 51.7 ± 26 | 46.7 ± 22 | 57.1 ± 31 | 38.6 ± 30 | 67.2 ± 29 | 30.3 ± 28 |  |  |  |  |  | 
CCCCCCCCCCCC(=O)O [Lauric acid] | 45.8 ± 25 |  | 37.4 ± 33 |  | 25.3 ± 24 |  | 28.7 ± 20 | 49.1 ± 34 | 71.6 ± 27 |  |  | 
O=C1CCCCCCCCCCCCCCO1 [Omega-Pentadecalactone] | 54.1 ± 23 |  | 32 ± 24 |  | 23 ± 29 |  | 73.5 ± 19 | 58.9 ± 28 | 57 ± 27 |  |  | 
CCCCO [butanol] |  | 42.7 ± 25 |  | 35.8 ± 32 |  | 19.8 ± 23 |  |  |  | 49.7 ± 26 | 27 ± 30 | 10.7 ± 19

SMILES | perceived odor pleasantness rating [1, 4] | perceived odor pleasantness rating [1, 5] | perceived odor familiarity rating [2, 4] | perceived odor familiarity rating [2, 5] | perceived odor intensity rating [3, 4] | perceived odor intensity rating [3, 5] | perceived odor pleasantness rating [1, 6] | perceived odor familiarity rating [2, 6] | perceived odor intensity rating [3, 6] | perceived odor pleasantness rating [1, 7] | perceived odor familiarity rating [2, 7] | perceived odor intensity rating [3, 7]
CCCC(=O)CCC [4-Heptanone] | 49.3 ± 23 | 51.6 ± 24 | 55.4 ± 27 | 41.1 ± 29 | 69.3 ± 24 | 34.7 ± 31 |  |  |  |  |  | 
Cc1ccc(C(C)C)cc1 [para-cymene] | 47.4 ± 26 |  | 55.8 ± 32 |  | 66.4 ± 28 |  | 37 ± 28 | 54.7 ± 32 | 83.7 ± 15 |  |  | 
CCCCCCCCCO [nonanol] | 35.8 ± 24 | 42.9 ± 25 | 46.9 ± 29 | 35.6 ± 31 | 66.4 ± 26 | 28.5 ± 30 |  |  |  |  |  | 
CCCC(=O)OCC [ethyl butyrate] | 61.1 ± 33 | 59.6 ± 26 | 65.6 ± 29 | 53.5 ± 30 | 77.8 ± 20 | 49.6 ± 32 |  |  |  |  |  | 
CCC(C)C1CCCCC1=O (stereo unspecified) [2-sec-Butylcyclohexanone] | 51 ± 24 |  | 44.6 ± 32 |  | 56.8 ± 28 |  | 49.3 ± 29 | 58.9 ± 32 | 81.9 ± 17 |  |  | 
CC(C)C(=O)OCc1ccc2c(c1)OCO2 [Piperonyl isobutyrate] | 48.3 ± 25 | 43.1 ± 18 | 38.4 ± 29 | 30.2 ± 25 | 29.4 ± 27 | 26.4 ± 30 |  |  |  |  |  | 
NC(=O)CC[C@H](N)C(=O)O [L-Glutamine] | 51.7 ± 21 | 49.6 ± 27 | 32.6 ± 26 | 35.8 ± 30 | 29.1 ± 28 | 19 ± 27 |  |  |  |  |  | 
CC(=O)CC/C=C(\C)CCC=C(C)C [6,10-Dimethyl-5,9-undecadien-2-one] | 41.8 ± 23 | 53 ± 21 | 43.6 ± 26 | 40.3 ± 30 | 42.1 ± 30 | 13 ± 12 |  |  |  |  |  | 
COc1ccccc1O [Guaiacol (replicate)] |  | 37.6 ± 25 |  | 47.2 ± 30 |  | 67.4 ± 29 |  |  |  | 36.9 ± 19 | 44 ± 30 | 54.8 ± 28
OCC(O)CO [glycerol] | 42.7 ± 25 |  | 31.8 ± 30 |  | 26.8 ± 29 |  | 48.1 ± 31 | 33.6 ± 28 | 31.2 ± 33 |  |  | 
CCCCC(C)CCC(=O)O (racemic) [(±)-4-Methyloctanoic acid] | 29 ± 20 |  | 48.6 ± 30 |  | 67.2 ± 25 |  | 27.4 ± 25 | 41.7 ± 32 | 72.5 ± 25 |  |  | 
COc1ccc(C)cc1 [4-Methylanisole] | 47.7 ± 28 | 56.3 ± 28 | 48.2 ± 31 | 50.2 ± 28 | 70.5 ± 21 | 44.8 ± 31 |  |  |  |  |  | 
COc1nccnc1CC(C)C [2-isobutyl-3-methoxypyrazine] | 31.2 ± 25 | 47.9 ± 26 | 50.1 ± 31 | 57.7 ± 30 | 80.6 ± 19 | 71.7 ± 27 |  |  |  |  |  | 
CC(=O)OCC(COC(C)=O)OC(C)=O [Triacetin] | 38.9 ± 24 |  | 39.2 ± 35 |  | 45.1 ± 30 |  | 33.1 ± 25 | 54.5 ± 35 | 57.8 ± 29 |  |  | 
CSCCC=O [3-(Methylthio)propionaldehyde] |  | 23.9 ± 28 |  | 53.5 ± 33 |  | 79.6 ± 23 |  |  |  | 30.7 ± 26 | 49.9 ± 33 | 70.3 ± 25

— the supplement of paper PMC4977894
